{"source": "patent US20130243928A1", "about": "(priority 2007, published 2013)", "assay": "Distribution (dissolution) of resveratrol in an aliquot of wine with heating", "format": "physicochemical", "conditions": "heating up to about 40° C., no added alcohol or other solvent", "source_text": "The size, temperature and heating time for a batch of resveratrol concentrate will vary depending on how much resveratrol is needed to be added. […] Temperature can be measured by placing a thermometer in the batch of wine and timing the process."}
{"compound": "Oc1ccc(/C=C/c2cc(O)cc(O)c2)cc1", "note": "[resveratrol, trans-3,5,4′-trihydroxystilbene]", "values": [{"measurement": "amount of resveratrol that can be distributed in an aliquot of wine", "result": "about 1.25 (wt/vol)"}]}
